Test results published in US20230277491A1, “PHARMACEUTICAL COMBINATION COMPRISING GLYCOLIC ACID AND L-ALANINE” (priority 2020, published 2023).

Key:
[1] = male Wistar rats; cited from earlier work
dopaminergic neurons = assay: Survival of dopaminergic neurons with paraquat 25 μM challenge (Example 1, FIG. 1); assay type: cell-based, mouse
Description: Dopaminergic neurons were isolated and plated at a concentration of 1.000.000 cells/ml (100 μl/well) in a 96 well plate and cultured in medium with one or more of the various factors indicated, as described in the examples below. The survival of dopaminergic neurons in the presence and absence of various agents of the invention, either with or without paraquat challenge, is shown by the number of TH positive neurons normalized to the control treatment.
Dopaminergic neurons were isolated and plated at a concentration of 1.000.000 cells/ml (100 μl/well) in a 96 well plate. After 3-4 hours incubation at 37° C., 20 μl of medium was removed from each well. (VF=80 μl). Changes in medium and start point of the treatment were done in the following day in vitro (DIV). The following protocol was employed in order to assess the survival of dopaminergic neurons in the presence and absence of various agents of the invention combination, either with or without paraquat challenge. • DIV.1: Change half of medium N2 (40 μl) with fresh medium N2. • DIV.3: Change half of the medium and start with medium (control) or with medium A containing LA (different concentrations) and/or GA (normally 5 mM or 10 mM). Medium A is N2 medium but without FBS and N2-Supplement. • DIV.5: Second round of control or treatment with LA and/or GA. Half of the medium (40 μl) was replaced by fresh medium A with the different agents. • DIV.7: Paraquat 25 μM treatment starts with or without GA and L-alanine. Half of the medium (40 μl) was replaced by fresh medium A with the different treatment combinations or without (control). • DIV.9: Second day of treatment with Paraquat (PQ) 25 μM in addition to the other substances (LA and GA). • DIV.10: Fixation 2% of PFA during 20 min at 37° C. or overnight at 4° C.
Primary mesencephalic neuronal cell cultures were prepared as previously described. Briefly, E14.5 embryos were obtained from C57JBL6 pregnant mice after cervical dislocation. Brain mesencephali were dissected under the microscope and digested with Trypsin-EDTA 0.12% (Life Technologies, USA) for 7 min. The trypsin reaction was then stopped by adding basic medium (BM), containing Neurobasal A medium (Gibco, USA), 1 mg/mL Pen/Strep, 10% FCS, and […] L-Glutamine, and cells were mechanically dissociated using a fire-polished Pasteur pipette. Medium was fully replaced after 5 min, centrifugation at 1200 rpm, aspiring the supernatant and adding 8 mL of fresh BM to the pellet. Concentration of cells in the medium was estimated using a Neubauer chamber and a 100 μL of medium containing 10^6 cells/mL plated per well in a 96-well plate (Greiner Sensoplate, Germany, EU). Then a 20 μL of medium was removed from the well and 24 h later, ⅓ of the media was replaced with fresh BM. […]

SMILES: O=C(O)CO [GA, 2-hydroxyethanoic acid]
- kidney findings after administration [1]: formation of hyperoxaluria and calcium oxalate precipitates
- survival of dopaminergic neurons (rescue) (dopaminergic neurons; 5 mM GA with PQ 25 μM): rescue over PQ treatment alone
- survival of dopaminergic neurons (rescue) (dopaminergic neurons; 10 mM GA with PQ 25 μM): rescued completely
